Measurements published in ChEMBL document CHEMBL1134749, “Synthesis and structure-activity relationships of 5-substituted pyridine analogues of 3” (Bioorg Med Chem Lett, 2001).

These compounds were tested against Nicotinic acetylcholine receptor alpha3/betaX (Homo sapiens) (UniProt P11230+P17787+P30926+P32297+Q05901) (assay: Antagonistic activity against Nicotinic acetylcholine receptor (alpha3-betaX subunit) in IMR 32 cell line using 100 uM of (-)-nicotine as agonist).
Format: functional, cell-based

In the case of CN1CCC[C@H]1COc1cncc(-c2cncnc2)c1, the Max efficacy is reported as 38.9%.

What follows are compounds tested against Neuronal acetylcholine receptor; alpha4/beta2 (Rattus norvegicus, UniProt P09483+P12390) (assay: In vitro ability to displace [3H](-)-cytisine binding to whole rat brain membranes at Nicotinic acetylcholine receptor alpha4-beta2).
Neuronal acetylcholine receptor; alpha4/beta2, sequence (P09483 whole entry): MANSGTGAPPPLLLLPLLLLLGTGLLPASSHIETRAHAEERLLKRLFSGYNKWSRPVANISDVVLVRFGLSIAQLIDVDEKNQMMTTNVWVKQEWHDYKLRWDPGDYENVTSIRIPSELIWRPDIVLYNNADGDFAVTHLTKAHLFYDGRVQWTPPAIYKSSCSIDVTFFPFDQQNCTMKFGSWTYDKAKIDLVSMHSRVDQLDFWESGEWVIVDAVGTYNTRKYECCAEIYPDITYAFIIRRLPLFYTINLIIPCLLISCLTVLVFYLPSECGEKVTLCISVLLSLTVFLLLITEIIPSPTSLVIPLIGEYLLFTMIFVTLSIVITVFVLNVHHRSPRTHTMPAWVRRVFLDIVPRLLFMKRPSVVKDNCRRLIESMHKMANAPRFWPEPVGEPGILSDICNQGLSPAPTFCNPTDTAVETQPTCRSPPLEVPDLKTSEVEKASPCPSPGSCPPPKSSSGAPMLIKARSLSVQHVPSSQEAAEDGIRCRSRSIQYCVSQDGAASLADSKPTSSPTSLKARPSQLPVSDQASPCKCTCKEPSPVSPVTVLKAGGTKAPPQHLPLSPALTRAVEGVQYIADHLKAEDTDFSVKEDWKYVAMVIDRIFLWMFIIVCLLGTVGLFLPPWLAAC
Neuronal acetylcholine receptor; alpha4/beta2, sequence (P12390 whole entry): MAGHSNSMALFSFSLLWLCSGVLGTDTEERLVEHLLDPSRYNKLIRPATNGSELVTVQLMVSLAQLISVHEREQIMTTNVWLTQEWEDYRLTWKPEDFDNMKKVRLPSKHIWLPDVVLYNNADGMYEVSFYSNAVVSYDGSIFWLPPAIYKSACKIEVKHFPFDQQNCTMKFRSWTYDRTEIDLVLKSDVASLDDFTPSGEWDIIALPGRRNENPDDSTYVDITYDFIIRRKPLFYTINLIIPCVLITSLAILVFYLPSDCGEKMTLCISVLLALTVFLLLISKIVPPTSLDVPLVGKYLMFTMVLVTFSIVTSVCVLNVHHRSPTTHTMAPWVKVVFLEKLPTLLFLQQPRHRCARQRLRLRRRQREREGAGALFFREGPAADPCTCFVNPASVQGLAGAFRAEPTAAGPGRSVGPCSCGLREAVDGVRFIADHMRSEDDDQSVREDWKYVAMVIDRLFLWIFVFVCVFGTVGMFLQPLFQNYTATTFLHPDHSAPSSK
Parameters: species or system Membrane

Point of comparison: CN1CCC[C@H]1COc1cncc(/C=C/c2ccncc2)c1, Ki 0.12 nM. Against it:
- Cc1ccc(C#Cc2cncc(OC[C@@H]3CCCN3C)c2)cc1 — 2.6-fold higher, 0.31 nM
- CN1CCC[C@H]1COc1cncc(-c2cc3ccccc3o2)c1 — within 1.5-fold, 0.15 nM
- CN1CCC[C@H]1COc1cncc(-c2cncnc2)c1 — 3.1-fold higher, 0.37 nM

What follows are compounds tested against Nicotinic acetylcholine receptor alpha3/betaX (assay: (§1) Antagonistic activity against neuronal nicotinic acetylcholine receptor (alpha3-betaX subunit) in IMR 32 cell line using 100 uM of (-)-nicotine as agonist).
Format: functional, cell-based, Homo sapiens

Work on CN1CCC[C@H]1COc1cncc(-c2cncnc2)c1 yielded an EC50 of 32.4 µM.

Each compound was assayed against Nicotinic acetylcholine receptor alpha3/betaX (assay: as §1).
Format: functional, cell-based

Point of comparison: CN1CCC[C@H]1COc1cncc(-c2cccs2)c1, IC50 1.7 µM. Against it:
- CN1CCC[C@H]1COc1cncc(/C=C/c2ccncc2)c1 — 4.5-fold higher, 7.6 µM
- CN1CCC[C@H]1COc1cncc(-c2ccc(F)cc2)c1 — 3.8-fold higher, 6.48 µM
- COc1ccc(-c2cncc(OC[C@@H]3CCCN3C)c2)cc1 — 4.1-fold higher, 6.97 µM
- CN1CCC[C@H]1COc1cncc(CCc2ccncc2)c1 — 3.7-fold higher, 6.3 µM
- Cc1ccccc1-c1cncc(OC[C@@H]2CCCN2C)c1 — within 1.5-fold, 1.25 µM
- CN1CCC[C@H]1COc1cncc(-c2ccco2)c1 — 4.6-fold higher, 7.9 µM
- Cc1ccc(C#Cc2cncc(OC[C@@H]3CCCN3C)c2)cc1 — within 1.5-fold, 1.5 µM
- CN1CCC[C@H]1COc1cncc(-c2ccc(Cl)cc2Cl)c1 — 1.9-fold lower, 0.89 µM
- CN1CCC[C@H]1COc1cncc(-c2cc3ccccc3o2)c1 — 1.7-fold higher, 2.9 µM
- CN1CCC[C@H]1COc1cncc(/C=C/c2ccccc2)c1 — 2.8-fold higher, 4.8 µM
- CN1CCC[C@H]1COc1cncc(-c2ccccc2)c1 — 3-fold higher, 5.1 µM
- CN1CCC[C@H]1COc1cncc(-c2cnc3ccccc3c2)c1 — 3-fold higher, 5.1 µM
- CN1CCC[C@H]1COc1cncc(-c2ccccc2C=O)c1 — 3.7-fold higher, 6.31 µM
- CN1CCC[C@H]1COc1cncc(-c2ccc(C(F)(F)F)cc2)c1 — 3.4-fold higher, 5.71 µM
- CN1CCC[C@H]1COc1cncc(-c2cc(C(F)(F)F)cc(C(F)(F)F)c2)c1 — within 1.5-fold, 2.35 µM
- CN1CCC[C@H]1COc1cncc(-c2cccnc2)c1 — 15-fold higher, 24.7 µM
- CN1CCC[C@H]1COc1cncc(-c2cc3ccccc3n2C)c1 — 3.6-fold higher, 6.1 µM
- Cc1ccc(-c2cncc(OC[C@@H]3CCCN3C)c2)cc1 — 2.1-fold lower, 0.8 µM
- CN1CCC[C@H]1COc1cncc(-c2cccc(N)c2)c1 — 4.1-fold higher, 6.9 µM
- CN1CCC[C@H]1COc1cncc(-c2ccc(Cl)cc2)c1 — within 1.5-fold, 1.99 µM
- CN1CCC[C@H]1COc1cncc(-c2cccc([N+](=O)[O-])c2)c1 — within 1.5-fold, 2.33 µM
- CN1CCC[C@H]1COc1cncc(-c2ccc3ccccc3c2)c1 — 2-fold higher, 3.4 µM
- CN1CCC[C@H]1COc1cncc(CCc2ccccc2)c1 — 1.5-fold lower, 1.1 µM
- CN1CCC[C@H]1COc1cncc(-c2ccc(F)c(Cl)c2)c1 — 4.3-fold higher, 7.3 µM
- CN1CCC[C@H]1COc1cncc(C#Cc2ccccc2)c1 — 2.2-fold lower, 0.79 µM
- CN1CCC[C@H]1COc1cncc(-c2cccc3ccccc23)c1 — 2.5-fold lower, 0.69 µM
